The results in this text go back to ChEMBL document CHEMBL4350974, “Synthesis and biological evaluation of methylpyrimidine-fused tricyclic diterpene analogs as novel oral anti-late-onset hypogonadism agents” (Eur J Med Chem, 2019).

Structures are written as SMILES. Calls of active or inactive are those of the source. The calls are words filed in the database; no cut-off is given here. Where only a bound is given, the exact number is not on record here.

The nature of data set [1]: Cytotoxicity against mouse TM3 cells assessed as reduction in cell viability measured after 24 hrs by sulforhodamine B assay. It is filed as cell-based.
Data set [2] has as its system TM3. Nature of the data set: Induction of testosterone production in mouse TM3 cells assessed as increase in testosterone level at 20 uM measured after 24 hrs by ELISA relative to control. It is filed as functional.
For data set [3], the system named is Rattus norvegicus. In words: Anti late-onset hypogonadism activity in cyclophosphamide-induced Sprague-Dawley rat model of partial androgen deficiency assessed as intratesticular testosterone level at 10 mg/kg, sc administered for every 3 days up to 4 weeks ELISA (reference value: 137.99 +/- 19.27 nmol/L). It is filed as functional. (An ELISA detects its analyte on a solid surface through an enzyme-linked reagent.)

The nature of data set [4]: Toxicity in cyclophosphamide - induced Sprague-Dawley rat model of partial androgen deficiency assessed as sperm viability by semen analysis (reference value: 95.1 +/- 3.2 %).
Data set [5] deals with Rattus norvegicus. Nature of the data set: Anti late-onset hypogonadism activity in cyclophosphamide-induced Sprague-Dawley rat model of partial androgen deficiency assessed as weight of testis at 10 mg/kg, sc administered for every 3 days for 4 weeks (reference value: 1.47 +/- 0.13 g). It is filed as functional.
Data set [6] can be described thus: Toxicity in cyclophosphamide-induced Sprague-Dawley rat model of partial androgen deficiency assessed as decrease in body weight at 10 mg/kg, sc administered for every 3 days up to 4 weeks and measured every 3 days. In kind it is organism-based. As to conditions: in vivo.
In data set [7] the test system is Rattus norvegicus. In words: Anti late-onset hypogonadism activity in cyclophosphamide-induced Sprague-Dawley rat model of partial androgen deficiency assessed as inhibition of Leydig cells apoptosis at 10 mg/kg, sc administered for every 3 days up to 4 weeks by DAPI staining based TUNEL assay. In kind it is functional, organism-based.
Data set [8] relates to Rattus norvegicus. In words: Anti late-onset hypogonadism activity in cyclophosphamide-induced Sprague-Dawley rat model of partial androgen deficiency assessed as weight of seminal vesicles at 10 mg/kg, sc administered for every 3 days for 4 weeks Rvb = 1.33 +/- 0.26 g). It is filed as functional.
Data set [9] can be described thus: Toxicity in cyclophosphamide - induced Sprague-Dawley rat model of partial androgen deficiency assessed as sperm motility by semen analysis (reference value: 88.3 +/- 7.3 %). As to conditions: in vivo.
Data set [10] has as its system Rattus norvegicus. In words: Anti late-onset hypogonadism activity in cyclophosphamide-induced Sprague-Dawley rat model of partial androgen deficiency assessed as increase in serum total testosterone level at 10 mg/kg, sc administered for every 3 days up to 4 weeks and measured every 2 weeks by ELISA. It is filed as functional, organism-based.
Data set [11] is filed under the species Rattus norvegicus. In words: Potency index, ratio of test compound effect to testosterone effect for anti late-onset hypogonadism activity in cyclophosphamide-induced Sprague-Dawley rat model of partial androgen deficiency assessed as inhibition of Leydig cells apoptosis. It is filed as functional.
In data set [12] the test system is Rattus norvegicus. Nature of the data set: Anti late-onset hypogonadism activity in cyclophosphamide-induced Sprague-Dawley rat model of partial androgen deficiency assessed as increase in free testosterone level at 10 mg/kg, sc administered for every 3 days up to 4 weeks and measured every 2 weeks by ELISA. It is filed as functional, organism-based.

The CC50 is the concentration at which the toxic effect on the cells reaches its halfway point. Turning to `COc1cc2c(cc1C(=O)NN)CCC1C(C)(C)c3nc(C)ncc3C[C@]21C` (mixture of isomers), the CC50 at 24 h in [1] was over 200 µM. The Activity in data set [2] came out at 130%.

Regarding `COc1cc2c(cc1C(=O)O)CCC1C(C)(C)c3nc(C)ncc3C[C@]21C` (mixture of isomers), the Activity in data set [2] was 121.2%.

Regarding `COc1ccc2c(c1)[C@@]1(C)Cc3cnc(C)nc3C(C)(C)C1C/C2=N/O` (mixture of isomers), the Activity in data set [2] was found to be 128.5%.

Consider `COc1ccc2c(c1)[C@@]1(C)Cc3cnc(C)nc3C(C)(C)C1CC2=O` (mixture of isomers), for which the Activity in data set [2] is on record as 109.9%.

Turning to `COc1ccc2c(c1)[C@@]1(C)Cc3cnc(C)nc3C(C)(C)C1CC2` (mixture of isomers), the CC50 at 24 h in data set [1] came to 151 µM. In addition, in [2], the Activity worked out at 145%.

With `Cc1ncc2c(n1)C(C)(C)C1CCc3ccc(O)cc3[C@@]1(C)C2` (mixture of isomers), the Activity in data set [2] was 124.4%.

In the case of `CCCCCNC(=O)c1cc2c(cc1OC)[C@@]1(C)Cc3cnc(C)nc3C(C)(C)C1CC2` (mixture of isomers), the CC50 at 24 h in [1] is under 50 µM. Moreover, the Activity in [2] was 171.9%.

As to `C=CCOc1ccc2c(c1)[C@@]1(C)Cc3cnc(C)nc3C(C)(C)C1CC2` (mixture of isomers), in data set [2], the Activity is 142%.

With `COc1cc2c(cc1C(=O)Nc1nccs1)CCC1C(C)(C)c3nc(C)ncc3C[C@]21C` (mixture of isomers), the Activity in [2] was found to be 134.1%.

Regarding `COc1cc2c(cc1NC(C)=O)CCC1C(C)(C)c3nc(C)ncc3C[C@]21C` (mixture of isomers), the CC50 at 24 h in data set [1] is over 200 µM. Moreover, in data set [2], the Activity is recorded as 157.6%.

Regarding `COc1cc2c(cc1C(=O)Nc1ncco1)CCC1C(C)(C)c3nc(C)ncc3C[C@]21C` (mixture of isomers), the CC50 at 24 h in data set [1] is under 50 µM. Moreover, the Activity in data set [2] came out at 176.9%.

Take `C[C@]12CC[C@H]3[C@@H](CCC4=CC(=O)CC[C@@]43C)[C@@H]1CC[C@@H]2O` [TESTOSTERONE]: the Activity is 145.38 nmol/L in data set [3]; 88.8% in data set [4]; 1.53 g in data set [5]; “Non-Toxic” in data set [6]; 1.64 g in data set [8]; 79.8% in [9]. For the same compound, the inhibition entry in data set [7] is “Active”. Moreover, the outcome in data set [10] and in data set [12] was Active. Further, the Ratio in data set [11] turned out to be 2.

`COc1cc2c(cc1C(N)=O)CCC1C(C)(C)c3nc(C)ncc3C[C@]21C` (mixture of isomers): the 50% cytotoxic concentration (CC50) at 24 h in data set [1] was over 200 µM. Also, in data set [2], the Activity is 169.8%.

In the case of `COc1cc2c(cc1C(=O)NO)CCC1C(C)(C)c3nc(C)ncc3C[C@]21C` (mixture of isomers), the CC50 at 24 h in data set [1] came out at 82.2 µM. The Activity in [2] is reported as 189.5%.

Take `CCCNC(=O)c1cc2c(cc1OC)[C@@]1(C)Cc3cnc(C)nc3C(C)(C)C1CC2` (mixture of isomers): the Activity in data set [2] turned out to be 140.9%.

Turning to `Cc1ncc2c(n1)C(C)(C)C1CCc3ccc(OC(C)C)cc3[C@@]1(C)C2` (mixture of isomers), in data set [2], the Activity came out at 129.3%.

For the compound `COc1ccc2c(c1)[C@@]1(C)Cc3cnc(C)nc3C(C)(C)C1C=C2` (mixture of isomers), the Activity in data set [2] is on record as 129.8%.

On to `Cc1ncc2c(n1)C(C)(C)C1CCc3ccc(OCc4cccc([N+](=O)[O-])c4)cc3[C@@]1(C)C2` (mixture of isomers), for which, in data set [2], the Activity worked out at 122.4%.

In the case of `COc1cc2c(cc1C(=O)Nc1ccc3[nH]ncc3c1)CCC1C(C)(C)c3nc(C)ncc3C[C@]21C` (mixture of isomers), in [1], the CC50 at 24 h was under 50 µM. In [2], the Activity was 181.5%.

On to `CCCOc1ccc2c(c1)[C@@]1(C)Cc3cnc(C)nc3C(C)(C)C1CC2` (mixture of isomers), for which the Activity in [2] is reported as 113.2%.

For `COc1cc2c(cc1N)CCC1C(C)(C)c3nc(C)ncc3C[C@]21C.Cl` (mixture of isomers), the CC50 at 24 h in data set [1] is 127 µM. Moreover, in data set [2], the Activity came out at 146.6%.

With `COc1cc2c(cc1C(=O)NC1CCCC1)CCC1C(C)(C)c3nc(C)ncc3C[C@]21C` (mixture of isomers), in [2], the Activity came out at 122.4%.

Regarding `C#CCOc1ccc2c(c1)[C@@]1(C)Cc3cnc(C)nc3C(C)(C)C1CC2` (mixture of isomers), in data set [2], the Activity was found to be 120.5%.

In the case of `CCc1ccc(NC(=O)c2cc3c(cc2OC)[C@@]2(C)Cc4cnc(C)nc4C(C)(C)C2CC3)cc1` (mixture of isomers), the CC50 at 24 h in data set [1] was under 50 µM. Also, in data set [2], the Activity is reported as 167.8%.

As to `COc1ccc2c(c1)[C@@]1(C)Cc3c[nH]nc3C(C)(C)C1CC2` (some centres not stated), in [1], the CC50 at 24 h is under 50 µM. In addition, in [2], the Activity was determined as 116.6%.

In the case of `CNCc1cc2c(cc1OC)[C@@]1(C)Cc3cnc(C)nc3C(C)(C)C1CC2` (mixture of isomers), in [1], the cytotoxic concentration (CC50) at 24 h stood at 124 µM. Also, the Activity in data set [2] worked out at 176.6%.

For `COc1cc2c(cc1C(=O)NCc1cccc(Cl)c1)CCC1C(C)(C)c3nc(C)ncc3C[C@]21C` (mixture of isomers), the 50% cytotoxic concentration (CC50) at 24 h in [1] was under 50 µM. The Activity in data set [2] is given as 164.2%.

For the compound `C#CCNC(=O)c1cc2c(cc1OC)[C@@]1(C)Cc3cnc(C)nc3C(C)(C)C1CC2` (mixture of isomers), the Activity in [2] is 118.1%.

With `COc1cc2c(cc1C(=O)Nc1ccccc1)CCC1C(C)(C)c3nc(C)ncc3C[C@]21C` (mixture of isomers), the CC50 at 24 h in data set [1] was under 50 µM. The Activity in data set [2] is 156.8%.

Regarding `COc1ccc2c(c1)[C@@]1(C)Cc3sc(N)nc3C(C)(C)C1CC2` (some centres not stated), the CC50 at 24 h in data set [1] is under 50 µM. The Activity in data set [2] is given as 110.9%.

In the case of `COc1cc2c(cc1C(=O)NCC(C)C)CCC1C(C)(C)c3nc(C)ncc3C[C@]21C` (mixture of isomers), in [2], the Activity came to 114.7%.

Consider `COc1cc2c(cc1C(=O)N1CCc3ccccc31)CCC1C(C)(C)c3nc(C)ncc3C[C@]21C` (mixture of isomers), for which the Activity in data set [2] was found to be 116.9%.

Regarding `COc1ccc2c(c1)[C@@]1(C)Cc3nccnc3C(C)(C)C1CC2` (some centres not stated), in [1], the CC50 at 24 h turned out to be 71.3 µM. Besides, the Activity in [2] turned out to be 134%.

On to `COc1ccc2c(c1)[C@@]1(C)Cc3c([nH]c4ccccc34)C(C)(C)C1CC2` (some centres not stated), for which the CC50 at 24 h in data set [1] is under 50 µM. For the same compound, in data set [2], the Activity is 183.4%.

As for `COc1cc2c(cc1Br)CCC1C(C)(C)c3nc(C)ncc3C[C@]21C` (mixture of isomers), the Activity in data set [2] is on record as 119.2%.

In the case of `CCOC(=O)c1[nH]nc2c1C[C@]1(C)c3cc(OC)ccc3CCC1C2(C)C` (some centres not stated), in data set [1], the CC50 at 24 h was under 50 µM. Moreover, the Activity in [2] stood at 160.9%.

As for `COc1cc2c(cc1C(=O)N(C)C)CCC1C(C)(C)c3nc(C)ncc3C[C@]21C` (mixture of isomers), the CC50 at 24 h in [1] was over 200 µM. Also, in data set [2], the Activity was found to be 133.1%.

Take `COc1cc2c(cc1C(=O)NN1CCCCC1)CCC1C(C)(C)c3nc(C)ncc3C[C@]21C` (mixture of isomers): the Activity in data set [2] came to 111.5%.

In the case of `COc1ccc(-c2oc3c(CC=C(C)C)c(O[C@@H]4O[C@H](CO)[C@@H](O)[C@H](O)[C@H]4O)cc(O)c3c(=O)c2O[C@@H]2O[C@@H](C)[C@H](O)[C@@H](O)[C@H]2O)cc1` [ICARIIN], the CC50 at 24 h in data set [1] was over 200 µM. Further, the Activity in data set [2] is recorded as 139.6%.

As for `CCCCNC(=O)c1cc2c(cc1OC)[C@@]1(C)Cc3cnc(C)nc3C(C)(C)C1CC2` (mixture of isomers), the CC50 at 24 h in data set [1] was under 50 µM. In [2], the Activity was determined as 166.9%.

Regarding `C=CCNC(=O)c1cc2c(cc1OC)[C@@]1(C)Cc3cnc(C)nc3C(C)(C)C1CC2` (mixture of isomers), the Activity in [2] came to 142.9%.

Turning to `COc1cccc(NC(=O)c2cc3c(cc2OC)[C@@]2(C)Cc4cnc(C)nc4C(C)(C)C2CC3)c1` (mixture of isomers), the CC50 at 24 h in data set [1] was under 50 µM. Besides, the Activity in [2] is given as 173.6%.

Consider `Cc1ncc2c(n1)C(C)(C)C1CCc3ccc(OCc4ccccc4)cc3[C@@]1(C)C2` (mixture of isomers), for which the Activity in [2] is recorded as 133%.

For the compound `COc1ccc2c(c1)[C@@]1(C)Cc3c(n[nH]c3C(=O)O)C(C)(C)C1CC2` (some centres not stated), in data set [1], the cytotoxic concentration (CC50) at 24 h is over 200 µM. Besides, the Activity in [2] is 128.2%.

With `CCNC(=O)c1cc2c(cc1OC)[C@@]1(C)Cc3cnc(C)nc3C(C)(C)C1CC2` (mixture of isomers), the Activity in data set [2] was 141.3%.
